Test results as given in patent US12576063B2, “Implantable drug delivery devices for localized drug delivery” (priority 2020, dated 2026).

How the values were obtained:
[1] = Solid tissue and prostate gland drug quantification 55 days post-implantation; conditions: for liver level: average; for whole prostate gland level: centre transverse section not included; for level in 5 mm punch biopsies surrounding device implants: prostate tissue within ~5 mm of device
Protocol: (§1) In this study, three canines, at least fifteen months old, were employed. […] An 18-gauge brachytherapy needle (OD 1.27 mm) was used for device implantation. Clinical observations and body weight were recorded.
(§2) 55 days post-implantation, study animals were euthanized and underwent gross necropsy. […] Prostate glands were trimmed and cut in three section perpendicular to the urethra: a cranial (rostral) section, a 3-5 mm transverse section, and a caudal section. […] The transverse piece in its entirety was sent for histopathological evaluation.

prostate cancer cells = conditions: cited from earlier work
in vivo = conditions: male, dog
Protocol: as §1, §2

[2] = Plasma drug quantification after implantation of two devices into canine prostate; parameters: species or system canines; conditions: male, dog, in vivo
Protocol: Clinical observations and body weight were recorded.
Placement of devices was confirmed by transrectal ultrasound during implantation and 1, 7, 14, and 28 days post-implantation.
Note that the plasma levels as shown in FIGS. 6A and 6B are in micrograms for the oral dose while the scale is in ng/mL for the device plasma levels.

Q: Which results are given for `C[C@](O)(CS(=O)(=O)c1ccc(F)cc1)C(=O)Nc1ccc(C#N)c(C(F)(F)F)c1` [R-bicalutamide]?
A: level in prostate tissue within ~5 mm of the device (molar) [1]: 1623 ± 562 nM; whole prostate gland level (molar) [1]: 196.6 ± 23.5 nM; liver level [1]: 28 ± 9 ng/g; whole prostate gland level [1]: 86 ± 10 ng/g; level in 5 mm punch biopsies surrounding device implants [1]: 698 ± 242 ng/g; IC50 (prostate cancer cells): ~1000 nM

Q: With `C[C@@](O)(CS(=O)(=O)c1ccc(F)cc1)C(=O)Nc1ccc(C#N)c(C(F)(F)F)c1` [S-bicalutamide] as the compound, how does the liver level [1] read?
A: The liver level was 19 ± 7 ng/g.

Q: And the “whole prostate gland level” value [1]?
A: Its value is 87 ± 11 ng/g.

Q: What about the “level in 5 mm punch biopsies surrounding device implants” value [1] of the same compound?
A: The value was 727 ± 259 ng/g.

Q: Which concentration at 55 day (in vivo; level in 5 mm punch biopsies surrounding device implants) does the source give for `CC(O)(CS(=O)(=O)c1ccc(F)cc1)C(=O)Nc1ccc(C#N)c(C(F)(F)F)c1` (stereo not shown) [bicalutamide] here?
A: The concentration at 55 day was 1430 ± 501 ng/g.

Q: And the concentration at 55 day (in vivo; liver level)?
A: Its concentration at 55 day is 47 ± 16 ng/g.

Q: What about the concentration at 55 day (in vivo; whole prostate gland level) of the same compound?
A: Its concentration at 55 day is 172 ± 21 ng/g.

Q: What about the “time to plasma steady state” value [2] of the same compound?
A: The value was about 4 days.
